{"source": "paper PMC5926616", "about": "(Japanese Journal of Cancer Research : Gann, 2001)", "key": {"HCT-15/ADM1": {"tested_on": "HCT-15/ADM1", "assay": "XTT in vitro growth inhibition assay, HCT-15/ADM1", "type": "cell-based, human", "conditions": "IC50 of HCT-15/ADM1 divided by IC50 of parental HCT-15"}, "HCT-15": {"tested_on": "HCT-15", "assay": "XTT in vitro growth inhibition assay, parental HCT-15", "type": "cell-based, human", "conditions": "IC50 of subline divided by IC50 of parental cells; HCT-15 (parental, reference)"}, "HCT-15/ADM2-2": {"tested_on": "HCT-15/ADM2-2", "assay": "XTT in vitro growth inhibition assay, HCT-15/ADM2-2", "type": "cell-based, human", "conditions": "IC50 of HCT-15/ADM2-2 divided by IC50 of parental HCT-15"}, "HCT-15/ADM2": {"tested_on": "HCT-15/ADM2", "assay": "XTT in vitro growth inhibition assay, HCT-15/ADM2", "type": "cell-based, human", "conditions": "IC50 of HCT-15/ADM2 divided by IC50 of parental HCT-15"}, "P-glycoprotein-ATPase": {"tested_on": "P-glycoprotein-ATPase", "conditions": "cited from earlier work"}, "leukemia": {"tested_on": "leukemia", "conditions": "randomized trials, combination chemotherapy against leukemia; cited from earlier work"}, "[1]": {"conditions": "in contrast to cyclosporin A; cited from earlier work"}, "P-glycoprotein": {"tested_on": "P-glycoprotein", "conditions": "cited from earlier work"}}}
{"compound": "COc1cc([C@@H]2c3cc4c(cc3[C@@H](O[C@@H]3O[C@@H]5CO[C@@H](C)O[C@H]5[C@H](O)[C@H]3O)[C@H]3COC(=O)[C@H]23)OCO4)cc(OC)c1O", "note": "[Etoposide]", "values": [{"measurement": "Relative resistance", "setting": "HCT-15/ADM1", "value": 2.27}, {"measurement": "Relative resistance", "setting": "HCT-15", "value": 1}, {"measurement": "Relative resistance", "setting": "HCT-15/ADM2-2", "value": 3.16}, {"measurement": "Relative resistance", "setting": "HCT-15/ADM2", "value": 2.55}]}
{"compound": "[3′‐keto‐Bmt^1]‐[Val^2]‐cyclosporin [Valspodar]", "values": [{"measurement": "Inhibition of substrate-stimulated P-glycoprotein-ATPase activity", "setting": "P-glycoprotein-ATPase", "value": "more potent than cyclosporin A"}, {"measurement": "Complete remission rates or survival", "setting": "leukemia", "value": "failed to improve"}, {"measurement": "Immunosuppressive activity", "setting": "[1]", "value": "non-immunosuppressive"}, {"measurement": "Effect on binding of photoactive analogues of cyclosporin to P-glycoprotein", "setting": "P-glycoprotein", "value": "inhibited"}]}
{"compound": "COc1cccc2c1C(=O)c1c(O)c3c(c(O)c1C2=O)C[C@@](O)(C(=O)CO)C[C@@H]3O[C@H]1C[C@H](N)[C@H](O)[C@H](C)O1", "note": "[Adriamycin]", "values": [{"measurement": "Relative resistance", "setting": "HCT-15/ADM1", "value": 2.23}, {"measurement": "Relative resistance", "setting": "HCT-15", "value": 1}, {"measurement": "Relative resistance", "setting": "HCT-15/ADM2-2", "value": 7.77}, {"measurement": "Relative resistance", "setting": "HCT-15/ADM2", "value": 4.40}]}
{"compound": "CO[C@@]12[C@H](COC(N)=O)C3=C(C(=O)C(C)=C(N)C3=O)N1C[C@@H]1N[C@@H]12", "note": "[Mitomycin C]", "values": [{"measurement": "Relative resistance", "setting": "HCT-15/ADM1", "value": 0.80}, {"measurement": "Relative resistance", "setting": "HCT-15", "value": 1}, {"measurement": "Relative resistance", "setting": "HCT-15/ADM2-2", "value": 0.26}, {"measurement": "Relative resistance", "setting": "HCT-15/ADM2", "value": 1.77}]}
{"compound": "CC(=O)O[C@H]1C(=O)[C@@]2(C)[C@H]([C@H](OC(=O)c3ccccc3)[C@]3(O)C[C@H](OC(=O)[C@H](O)[C@@H](NC(=O)c4ccccc4)c4ccccc4)C(C)=C1C3(C)C)[C@]1(OC(C)=O)CO[C@@H]1C[C@@H]2O", "note": "[Taxol, paclitaxel]", "values": [{"measurement": "Relative resistance", "setting": "HCT-15/ADM1", "value": 2.81}, {"measurement": "Relative resistance", "setting": "HCT-15", "value": 1}, {"measurement": "Relative resistance", "setting": "HCT-15/ADM2-2", "value": 4.81}, {"measurement": "Relative resistance", "setting": "HCT-15/ADM2", "value": 2.63}]}
{"compound": "COc1cccc2c1C(=O)c1c(O)c3c(c(O)c1C2=O)C[C@@](O)(C(=O)CO)C[C@@H]3O[C@H]1C[C@H](N)[C@@H](O)[C@H](C)O1", "note": "[Epirubicin]", "values": [{"measurement": "Relative resistance", "setting": "HCT-15/ADM1", "value": 1.58}, {"measurement": "Relative resistance", "setting": "HCT-15", "value": 1}, {"measurement": "Relative resistance", "setting": "HCT-15/ADM2-2", "value": 4.33}, {"measurement": "Relative resistance", "setting": "HCT-15/ADM2", "value": 3.34}]}
{"compound": "O=C1c2c(O)ccc(O)c2C(=O)c2c(NCCNCCO)ccc(NCCNCCO)c21", "note": "[Mitoxantrone]", "values": [{"measurement": "Relative resistance", "setting": "HCT-15/ADM1", "value": 1.42}, {"measurement": "Relative resistance", "setting": "HCT-15", "value": 1}, {"measurement": "Relative resistance", "setting": "HCT-15/ADM2-2", "value": 3.12}, {"measurement": "Relative resistance", "setting": "HCT-15/ADM2", "value": 5.40}]}
{"compound": "CC[C@]1(O)C[C@H]2CN(CCc3c([nH]c4ccccc34)[C@@](C(=O)OC)(c3cc4c(cc3OC)N(C=O)[C@H]3[C@@](O)(C(=O)OC)[C@H](OC(C)=O)[C@]5(CC)C=CCN6CC[C@]43[C@@H]65)C2)C1", "note": "[Vincristine]", "values": [{"measurement": "Relative resistance", "setting": "HCT-15/ADM1", "value": 2.03}, {"measurement": "Relative resistance", "setting": "HCT-15", "value": 1}, {"measurement": "Relative resistance", "setting": "HCT-15/ADM2-2", "value": 2.96}, {"measurement": "Relative resistance", "setting": "HCT-15/ADM2", "value": 2.19}]}
